Reference: US12304932B2, “PACAP stabilized peptide” (SENJU PHARMACEUTICAL CO., LTD., priority 2017, dated 2025)
Square brackets hold non-standard residues; d marks the D form. Peptide text beside a SMILES is read from it. * marks the point of attachment. Ala(1H-tetrazol-5-yl) = N[C@@H](Cc1nnn[nH]1)C(=O)O; Nle = CCCC[C@H](N)C(=O)O; Ms = CS(=O)(=O)*

Experiment: Peptide stability tests 2 and 3: Tris buffer pH 7.0, stored at 60° C., HPLC conditions 2
Type: physicochemical
Settings: Tris buffer pH 7.0, 60° C.; for survival rate after correction for water, 60° C., 1-week storage / survival rate after correction for water, 60° C., 2-week storage: 100 μM peptide; for survival rate after correction for water, 60° C., 2-week storage: 2 weeks
Method: (§1) Peptides 1, 2 and 6 to 9 synthesized in Example 2 were weighed and dissolved in Tris buffer (pH 7.0) to prepare 1.0 mM peptide solutions. The solutions were filtered with a Chromatdisk (product of Merck Millipore, Millex-GV, 0.22 μm). Each filtrate was diluted to 100 μM with Tris buffer (pH 7.0) and dispensed into a tube (Protein LoBind Tube by Eppendorf Co.). The prepared peptide solutions were incubated for 1 week or 2 weeks in a 60° C. thermostatic bath to obtain stored samples. A simultaneously prepared sample among the peptide solutions that was not stored was used as a standard sample (initial sample). The standard sample and the stored samples were stored at −30° C. until sample analysis.
Each stored sample was measured under the following HPLC analysis conditions 2, and the survival rate after correction for water for each peptide among the stored samples was calculated in the same manner as Example 3.
Column: XSelect CSH C18 by Waters Co., 5 μm, 4.6×250 mm
Guard column: XSelect CSH C18 by Waters. Co., 5 μm, 4.6×20 mm Guard Cartridge
Detection wavelength: 220 nm
Mobile phase A: 0.1% formic acid in water
Mobile phase B: 0.1% formic acid in acetonitrile
Measuring time: 20 minutes
Measuring sample injection rate: 50 μL
Column temperature: 40° C.
Mobile phase delivery: The mixing ratio of mobile phase A and mobile phase B was varied as shown in Table 5 for linear concentration gradient control.
as §1, with “Peptides 12 to 25, 27” for “Peptides 1, 2”, “and 28” for “and 6 to 9”, “for one” for “for 1”
The survival rate after correction for water for each peptide among the stored samples was calculated in the same manner as Example 4, and the results are shown in Table 7.
as §1, with “29” for “1, 2 and 6”, “34” for “9”, “for” for “for 1 week or”
The survival rate after correction for water for each peptide among the stored samples was calculated in the same manner as Example 4, and the results are shown in Table 7-2.

SMILES: CC[C@H](C)[C@H](NC(=O)CNC(=O)[C@H](CC(=O)O)NC(=O)[C@H](CO)NC(=O)[C@H](Cc1cnc[nH]1)NC(C)=O)C(=O)N[C@@H](Cc1ccccc1)C(=O)N[C@H](C(=O)N[C@@H](CC(=O)O)C(=O)N[C@@H](CO)C(=O)N[C@@H](Cc1ccc(O)cc1)C(=O)N[C@@H](CO)C(=O)N[C@@H](CCCNC(=N)N)C(=O)N[C@@H](Cc1ccc(O)cc1)C(=O)N[C@@H](CCCNC(=N)N)C(=O)N[C@@H](CCCCN)C(=O)N[C@@H](CCC(N)=O)C(=O)N[C@@H](CCSC)C(=O)N[C@@H](C)C(=O)N[C@H](C(=O)N[C@@H](CCCCN)C(=O)N[C@@H](CCCCN)C(=O)N[C@@H](Cc1ccc(O)cc1)C(=O)N[C@@H](CC(C)C)C(=O)N[C@@H](C)C(=O)N[C@@H](C)C(=O)N[C@H](C(=O)N[C@@H](CC(C)C)C(N)=O)C(C)C)C(C)C)[C@@H](C)O [Peptide 2, reference compound]
- survival rate after correction for water, 60° C., 1-week storage: 28.7%
- survival rate after correction for water, 60° C., 2-week storage: 17.2%
- stability in aqueous solution, in words: only equivalent stability

SMILES: CCCC[C@H](NC(=O)[C@H](CCC(N)=O)NC(=O)[C@H](CCCCN)NC(=O)[C@H](CCCNC(=N)N)NC(=O)[C@H](Cc1ccc(O)cc1)NC(=O)[C@H](CCCNC(=N)N)NC(=O)[C@H](CO)NC(=O)[C@H](Cc1ccc(O)cc1)NC(=O)[C@H](CO)NC(=O)[C@H](Cc1nnn[nH]1)NC(=O)[C@@H](NC(=O)[C@H](Cc1ccccc1)NC(=O)[C@@H](NC(=O)CNC(=O)[C@H](Cc1nnn[nH]1)NC(=O)[C@H](CO)NC(=O)[C@@H](N)Cc1c[nH]cn1)[C@@H](C)CC)[C@@H](C)O)C(=O)N[C@@H](C)C(=O)N[C@H](C(=O)N[C@@H](CCCCN)C(=O)N[C@@H](CCCCN)C(=O)N[C@@H](Cc1ccc(O)cc1)C(=O)N[C@@H](CC(C)C)C(=O)N[C@@H](C)C(=O)N[C@@H](C)C(=O)N[C@H](C(=O)N[C@@H](CC(C)C)C(N)=O)C(C)C)C(C)C [Peptide 6] (H-HS[Ala(1H-tetrazol-5-yl)]GIFT[Ala(1H-tetrazol-5-yl)]SYSRYRKQ[Nle]AVKKYLAAVL-NH2)
- survival rate after correction for water, 60° C., 1-week storage: 91.3%
- survival rate after correction for water, 60° C., 2-week storage: 82.4%
- stability in aqueous solution, in words: drastically increased stability

SMILES: CC[C@H](C)[C@H](NC(=O)CNC(=O)[C@H](Cc1nnn[nH]1)NC(=O)[C@H](CO)NC(=O)[C@@H](N)Cc1c[nH]cn1)C(=O)N[C@@H](Cc1ccccc1)C(=O)N[C@H](C(=O)N[C@@H](Cc1nnn[nH]1)C(=O)N[C@@H](CO)C(=O)N[C@@H](Cc1ccc(O)cc1)C(=O)N[C@@H](CO)C(=O)N[C@@H](CCCNC(=N)N)C(=O)N[C@@H](Cc1ccc(O)cc1)C(=O)N[C@@H](CCCNC(=N)N)C(=O)N[C@@H](CCCCN)C(=O)N[C@@H](CCC(N)=O)C(=O)N[C@@H](CC(C)C)C(=O)N[C@@H](C)C(=O)N[C@H](C(=O)N[C@@H](CCCCN)C(=O)N[C@@H](CCCCN)C(=O)N[C@@H](Cc1ccc(O)cc1)C(=O)N[C@@H](CC(C)C)C(=O)N[C@@H](C)C(=O)N[C@@H](C)C(=O)N[C@H](C(=O)N[C@@H](CC(C)C)C(N)=O)C(C)C)C(C)C)[C@@H](C)O [Peptide 7] (H-HS[Ala(1H-tetrazol-5-yl)]GIFT[Ala(1H-tetrazol-5-yl)]SYSRYRKQLAVKKYLAAVL-NH2)
- survival rate after correction for water, 60° C., 1-week storage: 91.7%
- survival rate after correction for water, 60° C., 2-week storage: 84.8%
- stability in aqueous solution, in words: drastically increased stability

SMILES: CCCC[C@H](NC(=O)[C@H](CCC(N)=O)NC(=O)[C@H](CCCCN)NC(=O)[C@H](CCCNC(=N)N)NC(=O)[C@H](Cc1ccc(O)cc1)NC(=O)[C@H](CCCNC(=N)N)NC(=O)[C@H](CO)NC(=O)[C@H](Cc1ccc(O)cc1)NC(=O)[C@H](CO)NC(=O)[C@H](Cc1nnn[nH]1)NC(=O)[C@@H](NC(=O)[C@H](Cc1ccccc1)NC(=O)[C@@H](NC(=O)CNC(=O)[C@H](Cc1nnn[nH]1)NC(=O)[C@H](CO)NC(=O)[C@H](Cc1c[nH]cn1)NC(C)=O)[C@@H](C)CC)[C@@H](C)O)C(=O)N[C@@H](C)C(=O)N[C@H](C(=O)N[C@@H](CCCCN)C(=O)N[C@@H](CCCCN)C(=O)N[C@@H](Cc1ccc(O)cc1)C(=O)N[C@@H](CC(C)C)C(=O)N[C@@H](C)C(=O)N[C@@H](C)C(=O)N[C@H](C(=O)N[C@@H](CC(C)C)C(N)=O)C(C)C)C(C)C [Peptide 8] (Ac-HS[Ala(1H-tetrazol-5-yl)]GIFT[Ala(1H-tetrazol-5-yl)]SYSRYRKQ[Nle]AVKKYLAAVL-NH2)
- survival rate after correction for water, 60° C., 1-week storage: 98.1%
- survival rate after correction for water, 60° C., 2-week storage: 92.9%
- stability in aqueous solution, in words: further increased stability

SMILES: CC[C@H](C)[C@H](NC(=O)CNC(=O)[C@H](Cc1nnn[nH]1)NC(=O)[C@H](CO)NC(=O)[C@H](Cc1c[nH]cn1)NC(C)=O)C(=O)N[C@@H](Cc1ccccc1)C(=O)N[C@H](C(=O)N[C@@H](Cc1nnn[nH]1)C(=O)N[C@@H](CO)C(=O)N[C@@H](Cc1ccc(O)cc1)C(=O)N[C@@H](CO)C(=O)N[C@@H](CCCNC(=N)N)C(=O)N[C@@H](Cc1ccc(O)cc1)C(=O)N[C@@H](CCCNC(=N)N)C(=O)N[C@@H](CCCCN)C(=O)N[C@@H](CCC(N)=O)C(=O)N[C@@H](CC(C)C)C(=O)N[C@@H](C)C(=O)N[C@H](C(=O)N[C@@H](CCCCN)C(=O)N[C@@H](CCCCN)C(=O)N[C@@H](Cc1ccc(O)cc1)C(=O)N[C@@H](CC(C)C)C(=O)N[C@@H](C)C(=O)N[C@@H](C)C(=O)N[C@H](C(=O)N[C@@H](CC(C)C)C(N)=O)C(C)C)C(C)C)[C@@H](C)O [Peptide 9] (Ac-HS[Ala(1H-tetrazol-5-yl)]GIFT[Ala(1H-tetrazol-5-yl)]SYSRYRKQLAVKKYLAAVL-NH2)
- survival rate after correction for water, 60° C., 1-week storage: 98.4%
- survival rate after correction for water, 60° C., 2-week storage: 92.8%
- stability in aqueous solution, in words: further increased stability

SMILES: CC[C@H](C)[C@H](NC(=O)CNC(=O)[C@H](Cc1nnn[nH]1)NC(=O)[C@H](CO)NC(=O)[C@H](Cc1c[nH]cn1)NS(C)(=O)=O)C(=O)N[C@@H](Cc1ccccc1)C(=O)N[C@H](C(=O)N[C@@H](Cc1nnn[nH]1)C(=O)N[C@@H](CO)C(=O)N[C@@H](Cc1ccc(O)cc1)C(=O)N[C@@H](CO)C(=O)N[C@@H](CCCNC(=N)N)C(=O)N[C@@H](Cc1ccc(O)cc1)C(=O)N[C@@H](CCCNC(=N)N)C(=O)N[C@@H](CCCCN)C(=O)N[C@@H](CCC(N)=O)C(=O)N[C@@H](CC(C)C)C(=O)N[C@@H](C)C(=O)N[C@H](C(=O)N[C@@H](CCCCN)C(=O)N[C@@H](CCCCN)C(=O)N[C@@H](Cc1ccc(O)cc1)C(=O)N[C@@H](CC(C)C)C(=O)N[C@@H](C)C(=O)N[C@@H](C)C(=O)N[C@H](C(=O)N[C@@H](CC(C)C)C(N)=O)C(C)C)C(C)C)[C@@H](C)O [Peptide 12] (Ms-HS[Ala(1H-tetrazol-5-yl)]GIFT[Ala(1H-tetrazol-5-yl)]SYSRYRKQLAVKKYLAAVL-NH2)
- survival rate after correction for water, 60° C., 1-week storage: 97.0%
- survival rate after correction for water, 60° C., 2-week storage: 93.6%
